For one assay, the system named is HAP1 MTAP-intact. Description: SDMA in-cell western assay, HAP1 MTAP-intact cell line. As to conditions: Homo sapiens. It is filed as cell-based. The method in brief: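 Potency reflects cellular SDMA reduction, detected by in-cell western, in HAP1 cells with or without MTAP (endogenous expression versus null).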
The target of assay [1] is T1, PRMT5 (Homo sapiens, UniProt O14744).
T1 construct: purchased Viva (custom protein)
In words: PRMT5 IC50 assay with no cofactor. It is filed as biochemical. The method in brief:
(§1)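 Human PRMT5 inhibition, IC50 in μM; cofactor varied (SAM / MTA / none).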

In assay [2] the target is T1, PRMT5. Description: PRMT5 IC50 assay in the presence of MTA as cofactor. The class given is biochemical. As to conditions: for IC50: PRMT5, MTA as cofactor. An outline of the steps: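 Potency against PRMT5 is compared across cofactor states, where IC50 equals Ki×1.5 with SAM present and Ki×13.5 with MTA present.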
Assay [3] deals with T1, PRMT5. In words: PRMT5 IC50 assay in the presence of SAM as cofactor. The class given is biochemical. The method in brief:
as §1

The subject of another assay is HAP1 MTAP-deleted. In words: SDMA in-cell western assay, HAP1 MTAP-deleted cell line. It is filed as cell-based. The settings on record: for IC50: Homo sapiens, HAP1 MTAP-deleted cell line; for MTAP Intact/Deleted Ratio: IC50 ratio HAP1 MTAP-intact / HAP1 MTAP-deleted. The method in brief: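 These are IC50 values from an in-cell western measuring SDMA. The HAP1 cells used carry no MTAP, in contrast to the isogenic partner line with endogenous MTAP expression.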

Where [4] appears, read: ratio between the Ki in the presence of SAM and the Ki in the presence of MTA.
Where [5] appears, read: ratio between Ki in the presence of SAM and Ki in the presence of MTA.

T1 sequence (O14744 whole entry): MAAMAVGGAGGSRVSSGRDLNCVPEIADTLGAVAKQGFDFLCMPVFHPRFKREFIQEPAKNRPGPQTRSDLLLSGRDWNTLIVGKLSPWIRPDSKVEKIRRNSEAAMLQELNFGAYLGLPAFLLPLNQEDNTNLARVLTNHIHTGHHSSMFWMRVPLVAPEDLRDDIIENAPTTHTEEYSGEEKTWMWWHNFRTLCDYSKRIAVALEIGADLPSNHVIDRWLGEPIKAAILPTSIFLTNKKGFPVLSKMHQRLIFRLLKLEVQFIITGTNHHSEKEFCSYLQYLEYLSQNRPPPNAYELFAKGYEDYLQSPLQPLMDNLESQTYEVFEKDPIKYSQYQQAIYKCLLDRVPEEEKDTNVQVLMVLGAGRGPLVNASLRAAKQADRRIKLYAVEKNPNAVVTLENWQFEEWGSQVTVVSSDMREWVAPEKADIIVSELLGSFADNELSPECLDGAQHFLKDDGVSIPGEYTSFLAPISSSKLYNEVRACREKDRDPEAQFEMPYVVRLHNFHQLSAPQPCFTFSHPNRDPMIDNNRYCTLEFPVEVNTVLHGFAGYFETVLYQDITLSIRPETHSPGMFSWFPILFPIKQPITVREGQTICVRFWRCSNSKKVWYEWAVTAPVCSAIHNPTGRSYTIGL
T1 sequence (Q9BQA1 whole entry partner): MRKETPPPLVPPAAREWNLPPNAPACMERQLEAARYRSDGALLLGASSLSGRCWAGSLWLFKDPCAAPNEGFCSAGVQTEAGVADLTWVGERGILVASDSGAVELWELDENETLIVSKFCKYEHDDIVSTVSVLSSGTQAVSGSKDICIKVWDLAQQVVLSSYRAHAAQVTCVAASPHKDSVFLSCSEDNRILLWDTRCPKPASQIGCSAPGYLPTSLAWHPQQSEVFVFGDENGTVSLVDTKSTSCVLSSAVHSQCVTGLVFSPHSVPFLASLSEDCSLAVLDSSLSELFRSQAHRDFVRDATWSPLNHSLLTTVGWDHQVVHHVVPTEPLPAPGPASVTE

On to `Cc1c(OCc2cnco2)ccc2c1CCN(C[C@@H](O)CNC(=O)c1ccnc(NC3CC4CCCC43)c1)C2` (stereo partly drawn) [Compound 486, 2-(bicyclo[3.2.0]heptan-6-ylamino)-N—((S)-2-hydroxy-3-(5-methyl-6-(oxazol-5-ylmethoxy)-3,4-dihydroisoquinolin-2(1H)-yl)propyl)isonicotinamide], for which the IC50 with HAP1 MTAP-intact was ≥ 10 µM; against PRMT5 [1], ≥ 5 µM; at PRMT5 [2], 50 to 500 nM; on PRMT5 [3] it was 50 to 500 nM; with HAP1 MTAP-deleted, 1 to 10 µM. Also, the “SAM/MTA Ratio” value on PRMT5 [2] (setting [4]) is “A (a Ki ratio greater than or equal to 10 fold between the Ki in the presence of SAM and the Ki in the presence of MTA)”. Besides, the “MTAP Intact/Deleted Ratio” value with HAP1 MTAP-deleted is “C* (an IC50 ratio of less than 3 fold between the IC50 in the HAP1 MTAP-intact cell line and the HAP1 MTAP-deleted cell line)”.
Take `Cc1c(OCc2cnco2)ccc2c1CCN(C[C@@H](O)CNC(=O)c1cc(NC3CCN(C(=O)CC(C)C)CC3)ncn1)C2` [Compound 528]: the IC50 with HAP1 MTAP-intact was ≥ 10 µM; against PRMT5 [1], 0.5 to 5 µM; at PRMT5 [2] it was 50 to 500 nM; at PRMT5 [3], 50 to 500 nM; in the assay on HAP1 MTAP-deleted, 1 to 10 µM. The “SAM/MTA Ratio” value on PRMT5 [2] (setting [4]) is “A (a Ki ratio greater than or equal to 10 fold between the Ki in the presence of SAM and the Ki in the presence of MTA)”. In the assay on HAP1 MTAP-deleted, the “MTAP Intact/Deleted Ratio” value is “C* (an IC50 ratio of less than 3 fold between the IC50 in the HAP1 MTAP-intact cell line and the HAP1 MTAP-deleted cell line)”.
For `CC(C)N1CCN(c2cc(C(=O)NC[C@H](O)CN3CCc4c(ccc(OCc5cnco5)c4Cl)C3)cc(NC3CCC3)n2)CC1` [Compound 566], the IC50 in the assay on HAP1 MTAP-intact was ≥ 10 µM; against PRMT5 [1], 0.5 to 5 µM; on PRMT5 [2], 50 to 500 nM; at PRMT5 [3], 50 to 500 nM; with HAP1 MTAP-deleted it was ≥ 10 µM. Also, the “SAM/MTA Ratio” value at PRMT5 [2] (setting [4]) is “A (a Ki ratio greater than or equal to 10 fold between the Ki in the presence of SAM and the Ki in the presence of MTA)”. For the same molecule, the “MTAP Intact/Deleted Ratio” value in the assay with HAP1 MTAP-deleted was “C* (an IC50 ratio of less than 3 fold between the IC50 in the HAP1 MTAP-intact cell line and the HAP1 MTAP-deleted cell line)”.
With `CC(=O)N1CCC(Nc2cncc(C(=O)NC[C@H](O)CN3CCc4c(ccc(OCc5cnco5)c4C)C3)c2)CC1` [Compound 606, 5-[(1-acetylpiperidin-4-yl)amino]-N-[(2S)-2-hydroxy-3-{5-methyl-6-[(1,3-oxazol-5-yl)methoxy]-1,2,3,4-tetrahydroisoquinolin-2-yl}propyl]pyridine-3-carboxamide], the IC50 with HAP1 MTAP-intact is ≥ 10 µM; against PRMT5 [1] it was 0.5 to 5 µM; at PRMT5 [2], 50 to 500 nM; at PRMT5 [3], 50 to 500 nM; with HAP1 MTAP-deleted, 1 to 10 µM. Moreover, the “SAM/MTA Ratio” value on PRMT5 [2] (setting [4]) is “A (a Ki ratio greater than or equal to 10 fold between the Ki in the presence of SAM and the Ki in the presence of MTA)”. Besides, in the assay on HAP1 MTAP-deleted, the “MTAP Intact/Deleted Ratio” value is “C* (an IC50 ratio of less than 3 fold between the IC50 in the HAP1 MTAP-intact cell line and the HAP1 MTAP-deleted cell line)”.
Consider `CC(=O)N1CCC(Nc2cncc(C(=O)NC[C@H](O)CN3CCc4cc(OCc5cnco5)ccc4C3)c2)CC1` [Compound 549, (S)-5-((1-acetylpiperidin-4-yl)amino)-N-(2-hydroxy-3-(6-(oxazol-5-ylmethoxy)-3,4-dihydroisoquinolin-2(1H)-yl)propyl)nicotinamide], for which the IC50 in the assay with HAP1 MTAP-intact was ≥ 10 µM; against PRMT5 [1] it was 0.5 to 5 µM; on PRMT5 [2], 50 to 500 nM; at PRMT5 [3], 50 to 500 nM; in the assay with HAP1 MTAP-deleted, ≥ 10 µM. Also, the “SAM/MTA Ratio” value on PRMT5 [2] (setting [4]) is “A (a Ki ratio greater than or equal to 10 fold between the Ki in the presence of SAM and the Ki in the presence of MTA)”. The “MTAP Intact/Deleted Ratio” value in the assay on HAP1 MTAP-deleted is “C* (an IC50 ratio of less than 3 fold between the IC50 in the HAP1 MTAP-intact cell line and the HAP1 MTAP-deleted cell line)”.
As to `CC(C)CC(=O)N1CCC(Nc2cc(C(=O)NC[C@H](O)CN3CCc4c(ccc(OCc5cnco5)c4Cl)C3)ccn2)CC1` [Compound 443, (S)—N-(3-(5-chloro-6-(oxazol-5-ylmethoxy)-3N-dihydroisoquinolin-2(1H)-yl)-2-hydroxypropyl)-2-((1-(3-methylbutanoyl)piperidin-4-yl)amino)isonicotinamide], the IC50 was ≥ 10 µM with HAP1 MTAP-intact; 0.5 to 5 µM at PRMT5 [1]; 50 to 500 nM on PRMT5 [2]; 50 to 500 nM on PRMT5 [3]; < 1 µM in the assay with HAP1 MTAP-deleted. Moreover, the “SAM/MTA Ratio” value at PRMT5 [2] (setting [4]) was “A (a Ki ratio greater than or equal to 10 fold between the Ki in the presence of SAM and the Ki in the presence of MTA)”. Besides, the “MTAP Intact/Deleted Ratio” value in the assay with HAP1 MTAP-deleted is “A* (an IC50 ratio greater than or equal to 10 fold between the IC50 in the HAP1 MTAP-intact cell line and the HAP1 MTAP-deleted cell line)”.
Regarding `COc1cc(C(=O)NC[C@H](O)CN2CCc3c(ccc(OCc4ocnc4C)c3C)C2)cc(NC2CCN(C(C)=O)CC2)n1` [Compound 604, (S)-2-((1-acetylpiperidin-4-yl)amino)-N-(2-hydroxy-3-[5-methyl-6-((4-methyloxazol-5-yl)methoxy)-3,4-dihydroisoquinolin-2(1H)-yl)propyl)-6-methoxyisonicotinamide], the IC50 in the assay with HAP1 MTAP-intact is 1 to 10 µM; against PRMT5 [1], 0.5 to 5 µM; at PRMT5 [2], 50 to 500 nM; on PRMT5 [3], 50 to 500 nM; in the assay with HAP1 MTAP-deleted it was < 1 µM. The “SAM/MTA Ratio” value on PRMT5 [2] (setting [4]) was “A (a Ki ratio greater than or equal to 10 fold between the Ki in the presence of SAM and the Ki in the presence of MTA)”. Besides, the “MTAP Intact/Deleted Ratio” value in the assay with HAP1 MTAP-deleted was “A* (an IC50 ratio greater than or equal to 10 fold between the IC50 in the HAP1 MTAP-intact cell line and the HAP1 MTAP-deleted cell line)”.
As for `CC(=O)N1CCC(Nc2cc(C(=O)NC[C@H](O)CN3CCc4c(ccc(OCc5ocnc5C)c4Cl)C3)ncn2)CC1` [Compound 256, (S)-6-((1-acetylpiperidin-4-yl)amino)-N-(3-(5-chloro-6-((4-methyloxazol-5-yl)methoxy)-3N-dihydroisoquinolin-2(1H)-yl)-2-hydroxypropyl)pyrimidine-4-carboxamide], the IC50 in the assay with HAP1 MTAP-intact was ≥ 10 µM; on PRMT5 [1] (read-out: No Co-factor IC50), ≥ 5 µM; on PRMT5 [2], 50 to 500 nM; at PRMT5 [3] it was 50 to 500 nM; with HAP1 MTAP-deleted, 1 to 10 µM. Moreover, the “SAM/MTA Ratio” value at PRMT5 [2] (setting [5]) was “A (a Ki ratio greater than or equal to 10 fold between the Ki in the presence of SAM and the Ki in the presence of MTA)”. The “MTAP Intact/Deleted Ratio” value with HAP1 MTAP-deleted was “C* (an IC50 ratio of less than 3 fold between the IC50 in the HAP1 MTAP-intact cell line and the HAP1 MTAP-deleted cell line)”.
On to `CC(C)N1CCN(c2nc(NC3COC3)cc(C(=O)NC[C@H](O)CN3CCc4c(ccc(OCc5cnco5)c4Cl)C3)n2)CC1` [Compound 293, (S)—N-(3-(5-chloro-6-(oxazol-5-ylmethoxy)-3N-dihydroisoquinolin-2(1H)-yl)-2-hydroxypropyl)-2-(4-isopropylpiperazin-1-yl)-6-(oxetan-3-ylamino)pyrimidine-4-carboxamide], for which the IC50 is ≥ 10 µM in the assay with HAP1 MTAP-intact; 0.5 to 5 µM at PRMT5 [1] (read-out: No Co-factor IC50); 50 to 500 nM on PRMT5 [2]; 500 to 5000 nM on PRMT5 [3]; ≥ 10 µM in the assay on HAP1 MTAP-deleted. Further, the “SAM/MTA Ratio” value at PRMT5 [2] (setting [5]) is “A (a Ki ratio greater than or equal to 10 fold between the Ki in the presence of SAM and the Ki in the presence of MTA)”. Further, in the assay with HAP1 MTAP-deleted, the “MTAP Intact/Deleted Ratio” value was “C* (an IC50 ratio of less than 3 fold between the IC50 in the HAP1 MTAP-intact cell line and the HAP1 MTAP-deleted cell line)”.
Turning to `CC(C)C(=O)N1CCN(c2nc(NC3COC3)cc(C(=O)NC[C@H](O)CN3CCc4c(ccc(OCc5cnco5)c4Cl)C3)n2)CC1` [Compound 323, (S)—N-(3-(5-chloro-6-(oxazol-5-ylmethoxy)-3N-dihydroisoquinolin-2(1H)-yl)-2-hydroxypropyl)-2-(4-isobutyrylpiperazin-1-yl)-6-(oxetan-3-ylamino)pyrimidine-4-carboxamide], the IC50 in the assay with HAP1 MTAP-intact was ≥ 10 µM; at PRMT5 [1] (read-out: No Co-factor IC50) it was 0.5 to 5 µM; on PRMT5 [2] it was 50 to 500 nM; on PRMT5 [3], 50 to 500 nM; in the assay on HAP1 MTAP-deleted, 1 to 10 µM. Moreover, the “SAM/MTA Ratio” value on PRMT5 [2] (setting [5]) was “A (a Ki ratio greater than or equal to 10 fold between the Ki in the presence of SAM and the Ki in the presence of MTA)”. For the same molecule, the “MTAP Intact/Deleted Ratio” value with HAP1 MTAP-deleted is “B* (an IC50 ratio greater than or equal to 3 fold but lower than 10 fold between the IC50 in the HAP1 MTAP-intact cell line and the HAP1 MTAP-deleted cell line)”.
For `O=C(NC[C@H](O)CN1CCc2cc(OCc3cnco3)ccc2C1)c1cc(NC2COC2)nc(N2CCOCC2)n1` [Compound 304, (S)—N-(2-hydroxy-3-(6-(oxazol-5-ylmethoxy)-3N-dihydroisoquinolin-2(1H)-yl)propyl)-2-morpholino-6-(oxetan-3-ylamino)pyrimidine-4-carboxamide], the IC50 is 1 to 10 µM in the assay on HAP1 MTAP-intact; 0.5 to 5 µM on PRMT5 [1] (read-out: No Co-factor IC50); 50 to 500 nM on PRMT5 [2]; 50 to 500 nM on PRMT5 [3]; 1 to 10 µM with HAP1 MTAP-deleted. Also, in the assay on HAP1 MTAP-deleted, the “MTAP Intact/Deleted Ratio” value was “C* (an IC50 ratio of less than 3 fold between the IC50 in the HAP1 MTAP-intact cell line and the HAP1 MTAP-deleted cell line)”.

Values taken from patent US11986471B2, “Compounds and methods of use” (Tango Therapeutics, Inc., priority 2018, dated 2024).
